In US6150385A, “1,3,4-thiadiazoles useful for the treatment of CMV infections” (Pharmacia & Upjohn Company, priority 1999, dated 2000):

Each compound was assayed against T1, HCMV polymerase (Human cytomegalovirus, UniProt P08546) (assay: HCMV polymerase assay (scintillation proximity assay)). Conditions: percentage of inhibition at 25 μM concentration in CMV polymerase assay.
T1 construct: made in house; host or cells: SF-9 insect cells infected with recombinant baculovirus
Assay type: biochemical
How it was run: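 Values are percent inhibition at 25 μM, measured by scintillation proximity after capture of biotinylated poly(dA)-oligo(dT) (6 nM) extended with 90 nM 3H-dTTP. Recombinant SF-9-derived enzyme reacted 30 min at 25 or 37 °C in HEPES pH 7.5/KCl/MgCl2/BSA buffer, ±2 mM CHAPS, before EDTA termination.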

T1 sequence (P08546 whole entry): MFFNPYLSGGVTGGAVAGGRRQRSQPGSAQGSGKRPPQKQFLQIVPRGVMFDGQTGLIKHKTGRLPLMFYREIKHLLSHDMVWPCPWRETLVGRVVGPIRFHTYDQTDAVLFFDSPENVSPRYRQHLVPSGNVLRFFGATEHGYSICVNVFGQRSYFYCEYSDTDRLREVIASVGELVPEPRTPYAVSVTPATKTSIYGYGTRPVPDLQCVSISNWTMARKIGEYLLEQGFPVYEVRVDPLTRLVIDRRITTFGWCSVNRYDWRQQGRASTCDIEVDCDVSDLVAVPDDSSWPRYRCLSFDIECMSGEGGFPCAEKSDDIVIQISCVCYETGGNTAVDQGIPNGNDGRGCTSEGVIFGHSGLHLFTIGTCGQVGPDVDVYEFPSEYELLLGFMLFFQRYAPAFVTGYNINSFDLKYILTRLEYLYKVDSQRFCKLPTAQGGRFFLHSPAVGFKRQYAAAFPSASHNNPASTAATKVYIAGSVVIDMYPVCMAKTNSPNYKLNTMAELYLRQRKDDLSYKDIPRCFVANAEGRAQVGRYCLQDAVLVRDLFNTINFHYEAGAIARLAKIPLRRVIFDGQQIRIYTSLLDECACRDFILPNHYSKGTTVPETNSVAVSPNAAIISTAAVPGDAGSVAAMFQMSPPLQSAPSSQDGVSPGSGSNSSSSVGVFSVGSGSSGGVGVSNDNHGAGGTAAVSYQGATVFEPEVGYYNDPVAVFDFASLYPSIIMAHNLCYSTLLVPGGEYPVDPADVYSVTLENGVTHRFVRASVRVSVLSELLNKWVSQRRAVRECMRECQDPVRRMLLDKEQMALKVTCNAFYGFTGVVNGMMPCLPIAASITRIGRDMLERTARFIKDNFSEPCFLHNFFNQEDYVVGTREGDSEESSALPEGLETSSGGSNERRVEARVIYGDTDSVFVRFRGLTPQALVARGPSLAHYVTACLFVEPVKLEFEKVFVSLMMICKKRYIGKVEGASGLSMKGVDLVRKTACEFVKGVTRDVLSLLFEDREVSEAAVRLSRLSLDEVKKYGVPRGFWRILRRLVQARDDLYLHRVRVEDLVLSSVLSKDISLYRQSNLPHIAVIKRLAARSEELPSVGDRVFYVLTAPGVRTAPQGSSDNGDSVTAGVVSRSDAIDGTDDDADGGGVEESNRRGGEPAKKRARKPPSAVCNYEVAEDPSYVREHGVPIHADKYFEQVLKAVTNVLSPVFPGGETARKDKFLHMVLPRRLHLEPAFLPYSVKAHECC

Row | Compound | inhibition at 25 µM [%] | % Inhib [%]
1 | O=C(Nc1nnc(NCCCNC2CCCCC2)s1)c1ccc(F)cc1F [compound 160, N-(5-{[3-(cyclohexylamino)propyl]amino}-1,3,4-thiadiazol-2-yl)-2,4-difluorobenzamide] | 52.6 | 
2 | O=C(/C=C/c1ccccc1Cl)Nc1nnc(NCc2ccccn2)s1 [compound 161, (E)-3-(2-chlorophenyl)-N-{5-[(2-pyridinylmethyl)amino]-1,3,4-thiadiazol-2-yl}-2-propenamide] | 51.9 | 
3 | Cc1ccc(C(=O)Nc2nnc(NCCCNC3CCCCC3)s2)cc1 [compound 162, N-(5-{[3-(cyclohexylamino)propyl]amino}-1,3,4-thiadiazol-2-yl)-4-methylbenzamide] | 51.8 | 
4 | O=C(Nc1nnc(NCCSc2ccccc2)s1)c1ccc(Br)cc1 [compound 163, 4-bromo-N-(5-{[2-(phenylsulfanyl)ethyl]amino}-1,3,4-thiadiazol-2-yl)benzamide] | 51.5 | 
5 | O=C(/C=C/c1ccccc1Cl)Nc1nnc(NCc2cccs2)s1 [compound 164, (E)-3-(2-chlorophenyl)-N-{5-[(2-thienylmethyl)amino]-1,3,4-thiadiazol-2-yl}-2-propenamide] | 51.4 | 
6 | O=C(CCCCCl)Nc1nnc(NCc2ccc3c(c2)OCO3)s1 [compound 165, N-{5-[(1,3-benzodioxol-5-ylmethyl)amino]-1,3,4-thiadiazol-2-yl}-5-chloropentanamide] | 51.3 | 
7 | CCCCCCCC/C=C/CCCCCCCC(=O)Nc1nnc(NC[C@@H]2CCC3CC2C3(C)C)s1 (stereo partly drawn) [compound 166, (E)-N-[5-({[(2R)-6,6-dimethylbicyclo[3.1.1]hept-2-yl]methyl}amino)-1,3,4-thiadiazol-2-yl]-9-octadecenamide] | 51.1 | 
8 | CCCCCCCCCCCNc1nnc(NC(=O)c2ccc(C)cc2)s1 [compound 167, 4-methyl-N-[5-(undecylamino)-1,3,4-thiadiazol-2-yl]benzamide] | 50.8 | 
9 | O=C(Nc1nnc(NCCCCc2ccccc2)s1)c1ccc(Cl)c(Cl)c1 [compound 168, 3,4-dichloro-N-{5-[(4-phenylbutyl)amino]-1,3,4-thiadiazol-2-yl}benzamide] | 50.8 | 
10 | CC(C)c1cc(C(C)C)c(C(=O)Nc2nnc(NCCN3CCCC3)s2)c(C(C)C)c1 [compound 169, 2,4,6-triisopropyl-N-(5-{[2-(1-pyrrolidinyl)ethyl]amino}-1,3,4-thiadiazol-2-yl)benzamide] | 50.7 | 
11 | O=C(Nc1nnc(NCCCCc2ccccc2)s1)c1ccc(Br)cc1 [compound 170, 4-bromo-N-{5-[(4-phenylbutyl)amino]-1,3,4-thiadiazol-2-yl}benzamide] | 50.5 | 
12 | CCCCCCCC/C=C/CCCCCCCC(=O)Nc1nnc(NCc2ccccn2)s1 [compound 171, (E)-N-{5-[(2-pyridinylmethyl)amino]-1,3,4-thiadiazol-2-yl}-9-octadecenamide] | 49.9 | 
13 | O=C(Nc1nnc(NCCCNC2CCCCC2)s1)c1ccc(Cl)c(Cl)c1 [compound 172, 3,4-dichloro-N-(5-{[3-(cyclohexylamino)propyl]amino}-1,3,4-thiadiazol-2-yl)benzamide] | 49.7 | 
14 | CC(C)c1cc(C(C)C)c(C(=O)Nc2nnc(NCc3cccc4ccccc34)s2)c(C(C)C)c1 [compound 173, 2,4,6-triisopropyl-N-{5-[(1-naphthylmethyl)amino]-1,3,4-thiadiazol-2-yl}benzamide] | 49.5 | 
15 | O=C(Nc1nnc(NCc2ccco2)s1)c1c(Cl)cccc1Cl [compound 174, 2,6-dichloro-N-{5-[(2-furylmethyl)amino]-1,3,4-thiadiazol-2-yl}benzamide] | 49.5 | 
16 | CCCCCCCCCCCNc1nnc(NC(=O)c2cc(F)cc(F)c2)s1 [compound 175, 3,5-difluoro-N-[5-(undecylamino)-1,3,4-thiadiazol-2-yl]benzamide] | 49.4 | 
17 | CC(C)c1cc(C(C)C)c(C(=O)Nc2nnc(NCC(c3ccccc3)c3ccccc3)s2)c(C(C)C)c1 [compound 176, N-{5-[(2,2-diphenylethyl)amino]-1,3,4-thiadiazol-2-yl}-2,4,6-triisopropylbenzamide] | 49.4 | 
18 | CCOc1ccc2ccccc2c1C(=O)Nc1nnc(NCC2CC2)s1 [compound 177, N-{5-[(cyclopropylmethyl)amino]-1,3,4-thiadiazol-2-yl}-2-ethoxy-1-naphthamide] | 49 | 
19 | O=C(/C=C/c1ccccc1)Nc1nnc(NCc2ccc3c(c2)OCO3)s1 [compound 178, (E)-N-{5-[(1,3-benzodioxol-5-ylmethyl)amino]-1,3,4-thiadiazol-2-yl}-3-phenyl-2-propenamide] | 49 | 
20 | CCCCCCCC/C=C/CCCCCCCC(=O)Nc1nnc(NCCNc2ccccc2)s1 [compound 179, (E)-N-{5-[(2-anilinoethyl)amino]-1,3,4-thiadiazol-2-yl}-9-octadecenamide] | 48.5 | 

Row | Compound | inhibition at 25 µM [%] | % Inhib [%]
21 | O=C(Nc1nnc(NCc2ccc3c(c2)OCO3)s1)c1cc2ccccc2s1 [compound 180, N-{5-[(1,3-benzodioxol-5-ylmethyl)amino]-1,3,4-thiadiazol-2-yl}-1-benzothiophene-2-carboxamide] | 48.4 | 
22 | Cc1ccc(C(=O)Nc2nnc(NCc3ccc4c(c3)OCO4)s2)cc1 [compound 181, N-{5-[(1,3-benzodioxol-5-ylmethyl)amino]1,3,4-thiadiazol-2-yl}-4-methylbenzamide] | 48.3 | 
23 | O=C(Nc1nnc(NCC(c2ccccc2)c2ccccc2)s1)c1ccc(F)cc1F [compound 182, N-{5-[(2,2-diphenylethyl)amino]-1,3,4-thiadiazol-2-yl}-2,4-difluorobenzamide] | 48.2 | 
24 | O=C(CCCCCl)Nc1nnc(NCCC(c2ccccc2)c2ccccc2)s1 [compound 183, 5-chloro-N-{5-[(3,3-diphenylpropyl)amino]-1,3,4-thiadiazol-2-yl}pentanamide] | 48.1 | 
25 | O=C(Nc1nnc(NCCCN2CCCC2=O)s1)c1ccc2c(c1)C(=O)OC2=O [compound 184, 1,3-dioxo-N-(5-{[3-(2-oxo-1-pyrrolidinyl)propyl]amino}-1,3,4-thiadiazol-2-yl)-1,3-dihydro-2-benzofuran-5-carboxamide] | 47.8 | 
26 | O=C(/C=C/c1ccccc1Cl)Nc1nnc(NCCc2cccs2)s1 [compound 185, (E)-3-(2-chlorophenyl)-N-(5-{[2-(2-thienyl)ethyl]amino}-1,3,4-thiadiazol-2-yl)-2-propenamide] | 47.6 | 
27 | O=C(CCCCCl)Nc1nnc(NCC(c2ccccc2)c2ccccc2)s1 [compound 186, 5-chloro-N-{5-[(2,2-diphenylethyl)amino]-1,3,4-thiadiazol-2-yl}pentanamide] | 47.4 | 
28 | O=C(Nc1nnc(NCC(c2ccccc2)c2ccccc2)s1)c1cc2ccccc2s1 [compound 187, N-{5-[(2,2-diphenylethyl)amino]-1,3,4-thiadiazol-2-yl}-1-benzothiophene-2-carboxamide] | 47.2 | 
29 | O=C(Nc1nnc(NCC(c2ccccc2)c2ccccc2)s1)c1cc(F)cc(F)c1 [compound 188, N-{5-[(2,2-diphenylethyl)amino]-1,3,4-thiadiazol-2-yl}-3,5-difluorobenzamide] | 47.2 | 
30 | O=C(Nc1nnc(NCCCNC2CCCCC2)s1)c1ccc(S(=O)(=O)F)cc1 [compound 189, 4-{[(5-{[3-(cyclohexylamino)propyl]amino}-1,3,4-thiadiazol-2-yl)amino]carbonyl}benzenesulfonyl fluoride] |  | 47.1
31 | O=C(Nc1nnc(NCc2cccc3ccccc23)s1)c1cccc([N+](=O)[O-])c1 [compound 190, N-{5-[(1-naphthylmethyl)amino]-1,3,4-thiadiazol-2-yl}-3-nitrobenzamide] | 47.1 | 
32 | O=C(Nc1nnc(NCCCN2CCCC2=O)s1)c1ccc(Cl)c(Cl)c1 [compound 191, 3,4-dichloro-N-(5-{[3-(2-oxo-1-pyrrolidinyl)propyl]amino}-1,3,4-thiadiazol-2-yl)benzamide] | 47.1 | 
33 | O=C(Nc1nnc(NC2CCCc3ccccc32)s1)c1ccc([N+](=O)[O-])o1 (stereo not shown) [compound 192, 5-nitro-N-[5-(1,2,3,4-tetrahydro-1-naphthalenylamino)-1,3,4-thiadiazol-2-yl]-2-furamide] | 47 | 
34 | CCSCCNc1nnc(NC(=O)/C=C/c2ccccc2Cl)s1 [compound 193, (E)-3-(2-chlorophenyl)-N-(5-{[2-(ethylsulfanyl)ethyl]amino}-1,3,4-thiadiazol-2-yl)-2-propenamide] | 46.9 | 
35 | CCCCCCCCCCCNc1nnc(NC(=O)c2ccc(Br)cc2)s1 [compound 194, 4-bromo-N-[5-(undecylamino)-1,3,4-thiadiazol-2-yl]benzamide] | 46.8 | 
36 | O=C(Nc1nnc(NCc2cccc3ccccc23)s1)c1ccc(S(=O)(=O)F)cc1 [compound 195, 4-[({5-[(1-naphthylmethyl)amino]-1,3,4-thiadiazol-2-yl}amino)carbonyl]benzenesulfonyl fluoride] |  | 46.7
37 | O=C(/C=C/c1ccccc1Cl)Nc1nnc(NC2CCCCCC2)s1 [compound 196, (E)-3-(2-chlorophenyl)-N-[5-(cycloheptylamino) 1,3,4-thiadiazol-2-yl]-2-propenamide] | 46.2 | 
38 | O=C(Nc1nnc(NCCCCc2ccccc2)s1)c1ccc(F)cc1F [compound 197, 2,4-difluoro-N-{5-[(4-phenylbutyl)amino]-1,3,4-thiadiazol-2-yl}benzamide] | 46.2 | 
39 | O=C(Nc1nnc(NCCSc2ccccc2)s1)c1ccc(I)cc1 [compound 198, 4-iodo-N-(5-{[2-(phenylsulfanyl)ethyl]amino}-1,3,4-thiadiazol-2-yl)benzamide] | 46 | 
40 | CCCCCCCC/C=C/CCCCCCCC(=O)Nc1nnc(NC2CCC2)s1 [compound 199, (E)-N-[5-(cyclobutylamino)-1,3,4-thiadiazol-2-yl]-9-octadecenamide] | 46 | 
